Several values for one entry are separate records, joined by “and”; a condition that tells them apart may be missing. Identical values can stand only once. Values belong to the molecule of their own block, whether it stands above or below them. Residues, ends and D or L forms follow the SMILES beside them. *: point of attachment. X1 = Oc1cc(O)cc(/C=C/c2ccc(O*)cc2)c1
Tests used:
[1] = Anticancer activity against human Molt 4/C8 cells assessed as cell growth inhibition incubated for 48 hrs by MTT assay; format: functional, cell-based; details: Molt4/C8, 48 h
CCRF-CEM [2] = assay: Anticancer activity against human CEM cells assessed as cell growth inhibition incubated for 48 hrs by MTT assay; format: functional, cell-based
CCRF-CEM [3] = assay: Anticancer activity against human CEM cells assessed as cell growth inhibition incubated for 48 hrs by Tryphan blue assay; format: functional, cell-based
A549 [4] = assay: Anticancer activity against human A549 cells assessed as cell growth inhibition incubated for 48 hrs by Tryphan blue assay; format: functional, cell-based; details: A549, 48 h
[5] = Potency index, ratio of test compound IC50 to Melphalan IC50 for antiproliferative activity against […] L1210 cells; format: functional
L1210 = assay: Anticancer activity against mouse L1210 cells assessed as cell growth inhibition incubated for 48 hrs by MTT assay; format: functional, cell-based; details: L1210, 48 h
MCF7 [6] = assay: Anticancer activity against human MCF7 assessed as cell growth inhibition incubated for 72 hrs by MTT assay; format: functional, cell-based; details: MCF7, 72 h
NCI-H460 = assay: Anticancer activity against human NCI-H460 assessed as cell growth inhibition incubated for 72 hrs by MTT assay; format: functional, cell-based; details: NCI-H460, 72 h
HCT-116 [7] = assay: Anticancer activity against human HCT-116 assessed as cell growth inhibition incubated for 72 hrs by MTT assay; format: functional, cell-based; details: HCT-116, 72 h
MDA-MB-231 [8] = assay: Anticancer activity against human MDA-MB-231 cells assessed as reduction in cell viability measured after 48 hrs at 150 uM by MTT assay relative to control; format: functional
MDA-MB-231 [9] = assay: Anticancer activity against human MDA-MB-231 cells assessed as cell growth inhibition incubated for 24 hrs by MTT assay; format: functional, cell-based; details: MDA-MB-231, 24 h
Renal cancer cell line = assay: Growth inhibition of human Renal cancer cell line; format: functional
A549 [10] = assay: Anticancer activity against human A549 cells assessed as cell growth inhibition measured after 72 hrs by MTT assay; format: functional, cell-based; details: a549
HeLa [11] = assay: Anticancer activity against human HeLa cells assessed as cell growth inhibition measured after 72 hrs by MTT assay; format: functional, cell-based; details: hela; read-out: IC50
[12] = Anticancer activity against Lung adenocarcinoma cell line assessed as cell growth inhibition measured after 72 hrs by MTT assay; format: functional, cell-based; details: lung adenocarcinoma cell line
U-251 = assay: Anticancer activity against human U-251MG cells assessed as cell growth inhibition by CyQuant assay; format: functional, cell-based
SK-OV-3 [13] = assay: Anticancer activity against human SK-OV-3 cells assessed as cell growth inhibition incubated for 24 hrs […] by MTT assay; format: functional, cell-based; details: SK-OV-3, 24 h
A-431 = assay: Anticancer activity against human A-431 cells assessed as reduction of cell viability incubated for 48 hrs by MTT assay; format: functional, cell-based; details: A-431, 48 h
MCF-12A = assay: Anticancer activity against human MCF-12A cells assessed as reduction of cell viability incubated for 48 hrs by MTT assay; format: functional, cell-based
MCF7 [14] = assay: Anticancer activity against human MCF7 cells assessed as cell growth inhibition incubated for 48 hrs by MTS assay; format: functional, cell-based; details: MCF7, 48 h
[15] = Anticancer activity against human AZ-AHR cells assessed as cell growth inhibition incubate for 24 hrs by MTT assay; format: functional, cell-based
MCF7 [16] = assay: Anticancer activity against human MCF7 cells assessed as cell growth inhibition incubated for 24 hrs by MTT assay; format: functional, cell-based; details: MCF7, 24 h
SK-OV-3 [17] = assay: Anticancer activity against human SK-OV-3 assessed as cell growth inhibition incubated for 72 hrs by MTT assay; format: functional, cell-based; details: SK-OV-3, 72 h
MDA-MB-231 [18] = assay: Anticancer activity against human MDA-MB-231 cells assessed as cell growth inhibition by CyQuant assay; format: functional, cell-based
[19] = Cytotoxicity activity against human CCD-1059Sk cells assessed as cell growth inhibition incubated for 48 hrs in presence of Curcumin by MTS assay; format: toxicity, cell-based
Ishikawa = assay: cells; details: Homo sapiens
Description: Anti-tumor activity against human ishikawa cells assessed as anti-estrogenic potential

[20] = Growth inhibition of human leukaemia cell line; format: functional
[21] = Anticancer activity against human Peritoneal mesothelial cells assessed as cell growth inhibition by LDH release assay; format: functional, cell-based
HL-60 = assay: Anticancer activity against human HL-60 cells assessed as cell growth inhibition incubated for 48 hrs by MTT assay; format: functional, cell-based; details: HL-60, 48 h
MCF7 [22] = assay: Anticancer activity against human MCF7 cells assessed as reduction of cell viability incubated for 48 hrs by MTT assay; format: functional, cell-based; details: MCF7, 48 h
A2780 [23] = assay: Anticancer activity against human A2780 cells assessed as cell growth inhibition by LDH release assay; format: functional, cell-based
[24] = Cytotoxicity activity against human CCD-1059Sk cells assessed as cell growth inhibition incubated for 48 hrs by MTS assay; format: toxicity, cell-based
MCF7 [25] = assay: Anticancer activity against human MCF7 cells assessed as cell growth inhibition by CyQuant assay; format: functional, cell-based
SK-BR-3 = assay: Anticancer activity against human SK-BR-3 cells assessed as cell growth inhibition incubated for 24 hrs by MTT assay; format: functional, cell-based; details: SK-BR-3, 24 h
[26] = Cytotoxicity against mouse NIH3T3 cells assessed as cell growth inhibition by CyQuant assay; format: toxicity, cell-based
HepG2 [27] = assay: Anticancer activity against human HepG2 cells assessed as cell growth inhibition incubated for 3 days by MTT assay; format: functional, cell-based; details: HepG2, 72 h
HT-29 [28] = assay: Anticancer activity against human HT-29 cells assessed as cell growth inhibition incubated for 24 hrs by MTT assay; format: functional, cell-based; details: Homo sapiens, HT-29, 24 h
HepG2 [29] = assay: cells; details: Homo sapiens, HepG2, 48 h
Description: Anti cancer activity against human HepG2 cell assessed as cell growth inhibition incubated for 48 hrs by Brdu assay

HeLa [30] = assay: Anticancer activity against human HeLa cells assessed as cell growth inhibition incubated for 48 hrs by MTT assay; format: functional, cell-based
HepG2 [31] = assay: Anticancer activity against human HepG2 cells assessed as cell growth inhibition incubated for 24 hrs by MTT assay; format: functional, cell-based; details: HepG2, 24 h
HT-29 [32] = assay: cells; details: Homo sapiens, HT-29, 48 h
Description: Anti cancer activity against human HT-29 cell assessed as cell growth inhibition incubated for 48 hrs by Brdu assay

MCF7 [33] = assay: cells; details: Homo sapiens, MCF7, 48 h
Description: Anticancer activity against human MCF7 cells assessed as cell growth inhibition incubated for 48 hrs in presence of Curcumin by MTS assay

HEK293 = assay: Anticancer activity against human HEK293 cells assessed as cell growth inhibition incubated for 3 days by MTT assay; format: functional, cell-based; details: HEK293, 72 h
A2780 [34] = assay: Anticancer activity against human A2780 cells assessed as cell growth inhibition incubated for 24 hrs […] by MTT assay; format: functional, cell-based; details: A2780, 24 h
BXPC-3 = assay: Anticancer activity against human BXPC-3 cells assessed as cell growth inhibition incubated for 72 hrs by MTT assay; format: functional, cell-based; details: BXPC-3, 72 h
CYP1A = CYP1A (Homo sapiens, UniProt P04798+P05177); assay: Inhibtion of CYP1A (unknown origin); format: ADME, protein assay
ASPC1 = assay: Anticancer activity against human ASPC1 cells assessed as cell growth inhibition incubated for 72 hrs by MTT assay; format: functional, cell-based; details: ASPC1, 72 h
Capan-2 = assay: Anticancer activity against human Capan-2 cells assessed as cell growth inhibition incubated for 72 hrs by MTT assay; format: functional, cell-based; details: Capan-2, 72 h
HaCaT = assay: Anticancer activity against human HaCaT cells assessed as reduction of cell viability incubated for 48 hrs by MTT assay; format: functional, cell-based
[35] = Cytotoxicity against human MCF-10A cells assessed as cell growth inhibition incubated for 24 hrs by MTT assay; format: toxicity, cell-based
[36] = Anticancer activity against human HOSE cells assessed as cell growth inhibition incubated for 24 hrs […] by MTT assay; format: functional, cell-based
HCT-116 [37] = assay: Anticancer activity against human HCT-116 cells assessed as cell growth inhibition incubated for 5 days by SRB assay; format: functional, cell-based; details: HCT-116, 120 h
HeLa [38] = assay: Anticancer activity against human HeLa cells assessed as cell growth inhibition; format: functional, cell-based
Caco-2 = assay: cells; details: Homo sapiens, Caco-2, 48 h
Description: Anti cancer activity against human Caco-2 cell assessed as cell growth inhibition incubated for 48 hrs by Brdu assay

PANC-1 = assay: Anticancer activity against human PANC-1 cells assessed as cell growth inhibition by CyQuant assay; format: functional, cell-based
[39] = Anticancer activity against human Peritoneal mesothelial cells assessed as cell growth inhibition incubated for 24 hrs […] by MTT assay; format: functional, cell-based
[40] = Anticancer activity against human HOSE cells assessed as cell growth inhibition by LDH release assay; format: functional, cell-based
OVCAR-3 = assay: Anticancer activity against human OVCAR-3 cells assessed as cell growth inhibition incubated for 24 hrs […] by MTT assay; format: functional, cell-based; details: OVCAR-3, 24 h
HT-29 [41] = assay: Anticancer activity against human HT-29 cells assessed as cell growth inhibition incubated for 3 days by MTT assay; format: functional, cell-based; details: HT-29, 72 h
MCF7 [42] = assay: Anticancer activity against human MCF7 cells assessed as cell growth inhibition incubated for 3 days by MTT assay; format: functional, cell-based; details: MCF7, 72 h
HCT-116 [43] = assay: Anticancer activity against human HCT-116 cells assessed as cell growth inhibition; format: functional, cell-based

IC50 (CCRF-CEM [2]): 3.1 µM | IC50 (CCRF-CEM [3]): 2.6 µM | IC50 (A549 [4]): 2.6 µM | IC50 (L1210): 1.2 µM
Compound: COc1cc(/C=C/c2ccc(C)cc2)cc(OC)c1OC
IC50 [1]: 1.4 µM | Ratio IC50 [5]: 2

IC50 (MCF7 [6]): 58 µM | IC50 (NCI-H460): 41 µM | IC50 (HCT-116 [7]): 78 µM
Compound: CC(C)C[C@H](NC(=O)[C@H](CCCCN)NC(=O)[C@H](CO)NC(=O)[C@@H](N)CC(C)C)C(=O)Oc1ccc(/C=C/c2cc(O)cc(O)c2)cc1 (H-LSKL-X1)

IC50 (MDA-MB-231 [9]): 90.6 µM | GI50 (Renal cancer cell line): 15.9 µM | IC50 (A549 [10]): 66.2 µM and 10.5 µM | IC50 (HeLa [11]): 98.2 µM and 10.5 µM | IC50 (U-251): > 50 µM | IC50 (SK-OV-3 [13]): 380 µM | IC50 (A-431): 49.4 µM | IC50 (MCF7 [14]): 40.5 µM | IC50 (MCF7 [16]): 88.2 µM | IC50 (SK-OV-3 [17]): 48 µM | IC50 (MDA-MB-231 [18]): 40 µM | IC50 (Ishikawa): 3.4 µM | IC50 (HL-60): 64.1 µM | IC50 (MCF7 [22]): 24.6 µM | IC50 (A2780 [23]): 65 µM | IC50 (MCF7 [25]): 68.3 µM | IC50 (SK-BR-3): 110 µM | IC50 (HepG2 [27]): 355 µM | IC50 (HT-29 [28]): 130 µM | IC50 (HepG2 [29]): 111 µM | IC50 (HeLa [30]): 152 µM | IC50 (HepG2 [31]): 54.9 µM | IC50 (HT-29 [32]): 1120 µM | IC50 (MCF7 [33]): 61.7 µM | IC50 (A2780 [34]): 48 µM | IC50 (BXPC-3): 28 µM | IC50 (CYP1A): 0.23 µM | IC50 (ASPC1): 25 µM | IC50 (HCT-116 [37]): 31 µM | IC50 (HeLa [38]): 137 µM | IC50 (Caco-2): 190 µM | IC50 (PANC-1): 70 µM | IC50 (OVCAR-3): 480 µM | IC50 (HT-29 [41]): 70 µM | IC50 (MCF7 [42]): 127 µM | IC50 (HCT-116 [43]): 19.4 µM
Compound: Oc1ccc(/C=C/c2cc(O)cc(O)c2)cc1 [RESVERATROL]
Activity (MDA-MB-231 [8]): 58.45% | IC50 [12]: 10.5 µM and 24.9 µM | IC50 (MCF-12A): 93.5 µM | IC50 [15]: 19.4 µM | IC50 at 48 h [19]: 83.1 µM | GI50 [20]: 15.9 µM | IC50 [21]: 495 µM | IC50 at 48 h [24]: 188 µM | IC50 [26]: > 20 µM | IC50 (HEK293): 12 µM | IC50 (Capan-2): 26.5 µM | IC50 (HaCaT): 85.2 µM | IC50 at 24 h [35]: > 100 µM | IC50 [36]: 485 µM | IC50 [39]: 465 µM | IC50 [40]: 421 µM

Source: ChEMBL document CHEMBL5233248, “Resveratrol - A comprehensive review of recent advances in anticancer drug design and development” (Eur J Med Chem, 2020)
